Assay results: publication PMC12067444, “Synthesis and Pharmacological Characterization of Novel Peripheral Cannabinoid-1 Receptor Blockers Based on a Tricyclic Scaffold” (Journal of Medicinal Chemistry, 2025)

Legend:
TA98 = test: Mini-Ames assay, strain TA98; assay type: cell-based; settings: for F value: fold vs DMSO; for Growth of lawn: replicates 1-3;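 on solubility: P0 means no precipitate in solution and no crystal growth on plates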
Protocol: Mini Am es assay. To conduct the assay, top agar was melted with a microwave and maintained at a temper atur e ≥47 °C in a water bath. T he assay was performed using a heat block set to 45 °C ± 2 °C. 12 × 75 mm test tubes were prepared in duplicates. For each concentration, the following components were added sequentially to a test tube:
[…] The mixture was vortexed and then dispensed into w ells using a dispo sable pipette. The plates wer e then incubated at 37±2 °C for approximately 48 to 72 hours.
BBbbbb BBBBbbbb BBBB = AAAAbbbbbbAAbb nnnnnnbbbbbb bboo bbbbAAbbbbbbbbnnbbbb oobbbb bbbb eeee dd bbbbbb AAbbbbnn gg AAAAbbbbbbAAbb nnnnnnbbbbbb bbBB bbbbAAbbbbbbbbnnbbbb BBbbbb DDDDDDDD nn bbAAbbbbaaAAbb AAbbbbnnaa The mutagenicity of the compound was determined by evaluating the number of revertant colonies in strains TA98 and TA100. A compound was […]
related and if the fold increase in revertants (F) was equal to or greater than 2 for […]
background lawn growth on the agar plates. A scoring system ranging from 0 to 4 […]
growth, respectively. A score of 4 signified full '100%' growth. […]
background lawn and required magnification for visualization. […]

C57BL/6J mice = test: Assessment of centrally mediated hyperactivity (locomotor activity); assay type: in vivo, mouse
Protocol: The activity profiles of the mice were evaluated using the Promethion High-Definition Behavioral Phenotyping System (Sable Instruments, Inc., Las Vegas, NV, USA). MetaScreen software version 2.2.18.0 was employed for data acquisition and instrument control, while ExpeData version 1.8.4 was used for processing raw data. An analysis script detailing all aspects of the data transformation was utilized. Mice with unrestricted access to food and water were subjected to a standard 12 h light/12 h dark cycle, comprising a 16-h acclimation period followed by 24 h of sampling. Ambulatory activity and position were concurrently quantified by the number of disruptions of the infrared beams in three dimensions (XYZ) with a beam spacing of 0.25 cm.
This experiment aimed to evaluate the capacity of BNS808 and rimonabant (used as a positive control) to elicit centrally mediated hyperactivity in mice (a known feature of a brain penetrant compound). For this purpose, male wild-type C57BL/6J mice received a single dose of either the vehicle, rimonabant (10 mg/kg, PO), or BNS808 (1 or 10 mg/kg, PO). The locomotor activity was quantified by measuring the disruptions of infrared beams in two dimensions (XY) for 1 h. Each testing session involved evaluating two groups at a time.

[1] = Stability in simulated gastric fluid (SGF); assay type: in vitro ADME
[2] = Brain compound levels in the CNS side-effect study (Figure 2H); assay type: in vivo; settings: male, C57Bl/6J, mouse, in vivo; BNS808 PO (1 or 10 mg/kg, dose not stated), 1 h after administration
Protocol: The ability of BNS808 and rimonabant (as a positive control) to induce centrally mediated hyperactivity in mice (A–C). Wild-type, male, C57Bl/6J mice received a single dose of rimonabant (10 mg/kg, PO), BNS808 (1 or 10 mg/kg, PO) or vehicle, and the Promethion High-Definition Behavioral Phenotyping System monitored the activity profile. In addition, the ability of BNS808 and rimonabant (as a positive control) to inhibit the hypomotility induced by a CB1R receptor agonist (HU210; 30 μg/kg, IP) was tested in wild-type, male, C57Bl/6J mice which received a single dose of rimonabant (10 mg/kg, PO) or BNS808 (1 or 10 mg/kg, PO) or vehicle (D–F). […] Data represent the mean ± SEM from 4 to 8 mice per group. *P < 0.05 vs Vehicle-treated control. ^#P < 0.05 vs rimonabant.

O=S(=O)(NC1CCCOc2c1nn(-c1ccccc1Cl)c2-c1ccc(Cl)cc1)c1ccc(Cl)cc1 (stereo not shown) [BNS808, 4-chloro-N-[2-(2-chlorophenyl)-3-(4-chlorophenyl)-5,6,7,8-tetrahydrooxepino[3,2-c]pyrazol-8-yl]benzenesulfonamide]
Number of revertants MEAN (TA98; TA98, +S9, 31.25 μg/well): 10.67
solubility (TA98; TA98, +S9, 31.25 μg/well): P0
F value (TA98; TA98, +S9, 31.25 μg/well): 0.97
Growth of lawn (TA98; TA98, +S9, 31.25 μg/well): 4 (A score of 4 signified full '100%' growth)
Number of revertants MEAN (TA98; TA98, +S9, 62.5 μg/well): 11.33
solubility (TA98; TA98, +S9, 62.5 μg/well): P0
F value (TA98; TA98, +S9, 62.5 μg/well): 1.03
Growth of lawn (TA98; TA98, +S9, 62.5 μg/well): 4 (A score of 4 signified full '100%' growth)
Number of revertants MEAN (TA98; TA98, +S9, 125 μg/well): 11.33
solubility (TA98; TA98, +S9, 125 μg/well): P0
F value (TA98; TA98, +S9, 125 μg/well): 1.03
Growth of lawn (TA98; TA98, +S9, 125 μg/well): 4 (A score of 4 signified full '100%' growth)
Number of revertants MEAN (TA98; TA98, +S9, 250 μg/well): 13.00
solubility (TA98; TA98, +S9, 250 μg/well): P1 (0~20% growth of crystals)
F value (TA98; TA98, +S9, 250 μg/well): 1.18
Growth of lawn (TA98; TA98, +S9, 250 μg/well): 4 (A score of 4 signified full '100%' growth)
Number of revertants MEAN (TA98; TA98, +S9, 500 μg/well): 10.00
solubility (TA98; TA98, +S9, 500 μg/well): P2 (20%~60% growth of crystals)
F value (TA98; TA98, +S9, 500 μg/well): 0.91
Growth of lawn (TA98; TA98, +S9, 500 μg/well): 4 (A score of 4 signified full '100%' growth)
Number of revertants MEAN (TA98; TA98, +S9, 1000 μg/well): 9.67
solubility (TA98; TA98, +S9, 1000 μg/well): P3 (60%~100% growth of crystals)
F value (TA98; TA98, +S9, 1000 μg/well): 0.88
Growth of lawn (TA98; TA98, +S9, 1000 μg/well): 4 (A score of 4 signified full '100%' growth)
Number of revertants MEAN (TA98; TA98, -S9, 31.25 μg/well): 6.67
solubility (TA98; TA98, -S9, 31.25 μg/well): P0
F value (TA98; TA98, -S9, 31.25 μg/well): 0.91
Growth of lawn (TA98; TA98, -S9, 31.25 μg/well): 4 (A score of 4 signified full '100%' growth)
Number of revertants MEAN (TA98; TA98, -S9, 62.5 μg/well): 8.67
solubility (TA98; TA98, -S9, 62.5 μg/well): P0
F value (TA98; TA98, -S9, 62.5 μg/well): 1.18
Growth of lawn (TA98; TA98, -S9, 62.5 μg/well): 4 (A score of 4 signified full '100%' growth)
Number of revertants MEAN (TA98; TA98, -S9, 125 μg/well): 7.33
solubility (TA98; TA98, -S9, 125 μg/well): P0
F value (TA98; TA98, -S9, 125 μg/well): 1.00
Growth of lawn (TA98; TA98, -S9, 125 μg/well): 4 (A score of 4 signified full '100%' growth)
Number of revertants MEAN (TA98; TA98, -S9, 250 μg/well): 4.00
solubility (TA98; TA98, -S9, 250 μg/well): P1 (0~20% growth of crystals)
F value (TA98; TA98, -S9, 250 μg/well): 0.55
Growth of lawn (TA98; TA98, -S9, 250 μg/well): 4 (A score of 4 signified full '100%' growth)
Number of revertants MEAN (TA98; TA98, -S9, 500 μg/well): 5.33
solubility (TA98; TA98, -S9, 500 μg/well): P2 (20%~60% growth of crystals)
F value (TA98; TA98, -S9, 500 μg/well): 0.73
Growth of lawn (TA98; TA98, -S9, 500 μg/well): 4 (A score of 4 signified full '100%' growth)
Number of revertants MEAN (TA98; TA98, -S9, 1000 μg/well): 3.33
solubility (TA98; TA98, -S9, 1000 μg/well): P3 (60%~100% growth of crystals)
F value (TA98; TA98, -S9, 1000 μg/well): 0.45
Growth of lawn (TA98; TA98, -S9, 1000 μg/well): 4 (A score of 4 signified full '100%' growth)
CNS-mediated side effects (C57BL/6J mice; 1 mg/kg and 10 mg/kg PO, mice): No CNS-mediated side effects were observed
locomotor activity (centrally mediated hyperactivity) (C57BL/6J mice; single dose 1 or 10 mg/kg PO, male C57Bl/6J mice, 1 h): no significant changes in locomotor activity
amount in SGF with pepsin ([1]; 0 h): 2.753 mg
amount in SGF, no pepsin ([1]; 0 h): 2.826 mg
Initial amount (%) in SGF with pepsin ([1]; 1 h): 98%
Initial amount (%) in SGF, no pepsin ([1]; 1 h): 102%
amount in SGF with pepsin ([1]; 1 h): 2.69 mg
stability in SGF and SIF ([1]; summary column covering SGF and SIF): stable
Stability in SGF ([1]; with and without pepsin): Stable
concentration at 1 h [2]: 13 ng/g
